The results in this text go back to US9920074B2 (ACEA BIOSCIENCES INC., priority 2013, dated 2018).

Structures are written as SMILES. Entries after “also recorded” stand apart in the source; their conditions may differ.

Type in all cases: cell-based
Experiment [1] addresses T1, free Btk protein from Ramos cells (Homo sapiens, UniProt Q06187).
T1 construct: endogenous in cells; host or cells: Ramos cells (ATCC)
Description: Btk target site occupancy ELISA assay. The following applies: 1 h, ELISA, read-out: Btk Occupancy Assay (IC50). As to the method: (§1) Ramos cells were treated with Compound I-1 at indicated concentrations for 1 h, followed by stimulation with 6 μg/mL of IgM for 30 mm, and then lysed. Lysates were incubated with Compound I-21 (biotin labeled) at a final concentration of 1 μM in a PBS, 0.05% Tween-20, 1% BSA solution while shaking for 1 h at room temperature. Samples were transferred to a streptavidin-coated 96-well ELISA plate and mixed while shaking for 1 h at room temperature. The Btk antibody (BD 611116, 1:1000 dilution in PBS+0.05% Tween-20+0.5% BSA) was then applied and incubated for 1 h at room temperature. After wash, goat anti-mouse-HRP (Pierce 31432, 1:1000 dilution in PBS+0.05% Tween-20+0.5% BSA) was added and incubated for 1 h at room temperature. The ELISA was developed with addition of tetramethyl benzidine (TMB) followed by Stop Solution and read at OD 450 nm.
as §1, with “Compounds” for “Compound I-1”, “anti-IgM” for “IgM”, “diluted” for “dilution”, “tetramethylbenzidine” for “tetramethyl benzidine”

In experiment [2] the target is T2, Btk (Tyr223) phosphorylation in Ramos cells (Homo sapiens, UniProt Q06187).
T2 construct: endogenous in cells; host or cells: Ramos cells (ATCC)
T2 sequence (Q06187 whole entry): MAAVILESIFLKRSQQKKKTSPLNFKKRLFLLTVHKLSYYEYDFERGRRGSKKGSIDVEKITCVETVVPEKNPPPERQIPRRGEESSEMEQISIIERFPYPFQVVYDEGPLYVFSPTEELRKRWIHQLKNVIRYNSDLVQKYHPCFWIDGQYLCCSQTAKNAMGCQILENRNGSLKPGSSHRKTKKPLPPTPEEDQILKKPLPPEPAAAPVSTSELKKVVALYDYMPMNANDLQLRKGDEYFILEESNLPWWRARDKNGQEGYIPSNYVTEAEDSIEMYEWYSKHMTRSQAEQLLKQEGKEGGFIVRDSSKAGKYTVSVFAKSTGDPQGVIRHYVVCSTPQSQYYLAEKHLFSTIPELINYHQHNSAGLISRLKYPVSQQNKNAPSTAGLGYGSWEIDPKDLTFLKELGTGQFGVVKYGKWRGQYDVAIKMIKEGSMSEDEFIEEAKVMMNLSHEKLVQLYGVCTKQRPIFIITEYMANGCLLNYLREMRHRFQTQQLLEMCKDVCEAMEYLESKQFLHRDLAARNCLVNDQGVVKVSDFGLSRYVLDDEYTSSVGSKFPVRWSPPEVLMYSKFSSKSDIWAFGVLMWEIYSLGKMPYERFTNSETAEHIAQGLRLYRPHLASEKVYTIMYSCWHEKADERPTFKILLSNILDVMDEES
Description: Western blotting assay for Btk (Example 73). Conditions: 45 min, 6 μg/mL anti-IgM, read-out: Btk Inhibition. Put shortly:
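Ramos cells pre-treated with compound for 45 min at room temperature, then stimulated with 6 μg/mL anti-IgM for 30 min and lysed. Phospho-Btk (Tyr223) measured by Western blot band densitometry; IC50 fitted by non-linear regression.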

The target in experiment [3] is T3, Jak3 phosphorylation in NK-92 cells (Homo sapiens, UniProt P52333).
T3 construct: endogenous in cells; host or cells: NK-92 cells (ATCC)
T3 sequence (P52333 1-1124): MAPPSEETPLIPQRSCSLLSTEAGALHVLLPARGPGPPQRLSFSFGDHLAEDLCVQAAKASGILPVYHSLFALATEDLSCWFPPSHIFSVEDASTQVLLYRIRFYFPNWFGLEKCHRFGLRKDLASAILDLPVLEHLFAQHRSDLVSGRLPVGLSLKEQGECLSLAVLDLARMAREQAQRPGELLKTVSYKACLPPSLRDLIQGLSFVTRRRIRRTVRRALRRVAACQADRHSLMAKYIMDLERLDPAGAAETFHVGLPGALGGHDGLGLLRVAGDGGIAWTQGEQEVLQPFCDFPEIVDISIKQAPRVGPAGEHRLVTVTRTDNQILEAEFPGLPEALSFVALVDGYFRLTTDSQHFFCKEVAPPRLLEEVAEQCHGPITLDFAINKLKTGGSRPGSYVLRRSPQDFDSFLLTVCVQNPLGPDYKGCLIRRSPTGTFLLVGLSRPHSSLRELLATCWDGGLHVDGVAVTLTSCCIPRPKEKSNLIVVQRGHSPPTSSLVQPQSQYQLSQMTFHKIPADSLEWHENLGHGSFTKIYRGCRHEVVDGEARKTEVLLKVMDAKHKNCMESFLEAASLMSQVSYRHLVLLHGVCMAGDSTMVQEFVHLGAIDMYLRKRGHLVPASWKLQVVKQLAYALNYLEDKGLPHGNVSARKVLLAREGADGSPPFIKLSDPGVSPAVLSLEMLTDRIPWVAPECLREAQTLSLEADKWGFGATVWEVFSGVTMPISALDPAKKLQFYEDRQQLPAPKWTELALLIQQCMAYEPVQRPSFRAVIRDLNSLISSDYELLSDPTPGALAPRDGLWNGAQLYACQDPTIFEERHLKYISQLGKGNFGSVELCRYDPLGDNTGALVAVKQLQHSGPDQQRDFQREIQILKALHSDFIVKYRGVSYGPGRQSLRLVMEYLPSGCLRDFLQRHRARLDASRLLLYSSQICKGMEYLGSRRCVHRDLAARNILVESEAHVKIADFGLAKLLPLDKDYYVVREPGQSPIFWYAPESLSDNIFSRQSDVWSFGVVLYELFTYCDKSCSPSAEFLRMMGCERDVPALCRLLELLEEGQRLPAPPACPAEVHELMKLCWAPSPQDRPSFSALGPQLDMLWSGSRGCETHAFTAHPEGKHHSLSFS
Briefly: Western blotting assay for Jak3. The following applies: 1 hour, IL-2 stimulation, read-out: Jak3 inhibition. How it is done:
All cell lines were obtained from the American Type Culture Collection and were maintained at 37° C. with 5% CO2. Ramos cell line was maintained in media supplemented with 10% fetal bovine serum, penicillin (100 units/mL) and streptomycin (100 μg/mL). NK-92 cell line was maintained in media supplemented with 10% fetal bovine serum and 10% horse serum, penicillin (100 units/mL) and streptomycin (100 μg/mL), IL-2 10 ng/mL. Goat F(ab′)2 Anti-Human IgM-UNLB was obtained from SouthernBiotech. IL-2 was obtained from Peprotech.
NK-92 cells were treated with compounds at the dosed indicated for 1 hour in incubator, followed by the IL-2 stimulation for 15 minutes. Cells were then collected and lysed to prepare the cellular extraction. Western blots were performed on cell lysate using Phospho-Jak3, Jak3, Phospho-Stat5, Stat5 antibodies (Cell Signaling Technology). The intensity of blotting band was acquired using Image Lab (Bio-Rad) software, and the IC50 of target was generated with GraphPad Prism.

The test system of experiment [4] is Stat5 phosphorylation in NK-92 cells. Description: Western blotting assay for Stat5. The following applies: NK92, 1 hour, IL-2 stimulation, read-out: Stat5 inhibition. In outline: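 NK-92 cells, maintained with IL-2, were pre-treated with compound for 1 h, then stimulated with IL-2 for 15 min. Lysates were western blotted for phospho- and total Jak3 and Stat5. IC50 came from densitometry of phospho-band intensity.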

The target of experiment [5] is T2, Btk (Tyr223) phosphorylation in Ramos cells. Briefly: Btk Tyr223 phosphorylation inhibition, western blotting assay (Example 72). How it is done:
Ramos cell line was obtained from the American Type Culture Collection and was maintained at 37° C. with 5% CO2, in media supplemented with 10% fetal bovine serum, penicillin (100 units/mL) and streptomycin (100 μg/mL), Goat F(ab′)2 Anti-Human IgM-UNLB was obtained from SouthernBiotech.
Ramos cells were treated with compounds at indicated doses for 45 min at room temperature, followed by stimulation of 12 μg/mL of IgM for 30 min, and then lysed. Western blots were performed on the cell lysate using Phospho-Btk (Tyr223), Phospho-Btk (Tyr551), Btk, Phospho-PLCγ2 (Tyr1217), PLCγ2, Phospho-p44/42 MAPK (Erk1/2) (Thr202/Tyr204) and p44/42 MAPK (Erk1/2) antibodies (Cell Signaling Technology). The density of blotting band was acquired using ImageJ software, and the IC50 of Btk (Tyr223) phosphorylation was fitted using a non-linear regression model by GraphPad Prism version 4.0.

Experiment [6] addresses T4, Btk phosphorylation in Ramos cells (Homo sapiens, UniProt Q06187).
T4 construct: endogenous in cells; host or cells: Ramos cells (ATCC)
Description: Pulse chase western blotting assay for irreversibility / binding property. Conditions: 100 nM for 45 mins, monitored 4, 6 and 8 h post removal. As to the method:
Ramos cells were treated with Compound I-1 at 100 nM for 45 min. Cells were then re-suspended in compound free media and stimulated with 6 μg/ml IgM at 0, 4, 6 or 8 hours after compound removal. Cells were then lysed after 30 mm IgM stimulation. West blotting analysis were then performed.
Ramos cells were treated with Compounds at 100 nM for 45 min. Cells were then re-suspended in compound free media and stimulated with 6 μg/ml anti-IgM at 0, 4, 6 or 8 hours after compound removal. Cells were then lysed after 30 mm anti-IgM stimulation. Western blotting analysis was then performed.

T4 sequence (Q06187 whole entry): as the sequence (Q06187 whole entry) above
T1 sequence (Q06187 whole entry): as the sequence (Q06187 whole entry) above

Turning to `C=CC(=O)Nc1cccc(Oc2nc(Nc3ccc(N4CCN(CCOC)CC4)cc3)ncc2OC)c1` [Compound I-25a, N-(3-(5-methoxy-2-(4-(4-(2-methoxyethyl)piperazin-1-yl)phenylamino)pyrimidin-4-yloxy)phenyl)acrylamide], the IC50 in experiment [1] is at most 0.01 µM; in experiment [2], at most 0.01 µM; in experiment [3] it was at least 0.4 µM; in experiment [4], at least 0.4 µM.
Take `C=CC(=O)Nc1cccc(Oc2nc(Nc3ccc(N4CCN(C)CC4)c(F)c3)ncc2OC)c1` [Compound I-2, N-(3-(2-(3-fluoro-4-(4-methylpiperazin-1-yl)phenylamino)-5-methoxypyrimidin-4-yloxy)phenyl) acrylamide]: the IC50 is under 0.01 µM in experiment [5] (Btk Tyr223 phosphorylation, 45 min, 12 μg/mL IgM, read-out: BTK Inhibition); 0.005 µM in experiment [5] (treated 45 mins, read-out: inhibition IC50 of the phosphorylation of BTK protein); at most 0.01 µM in experiment [2]; 0.2 to 0.4 µM in experiment [3]; 0.2 to 0.4 µM in experiment [4]. Besides, the “reduction of the Btk Tyr223 phosphorylation in Ramos cells” value in experiment [5] (western blot) is given as “reduction of the Btk Tyr223 phosphorylation”. Further, the “inhibition of BTK phosphorylation after compound removal (irreversibility)” value in experiment [6] is on record as “remains inhibited up to 8 his; also recorded: long term effect of the inhibition was observed after compounds removal up to 8 hours; also recorded: remains inhibited up to 8 hrs; also recorded: irreversibly inhibited the BTK phosphorylation; also recorded: inhibited the Btk phosphorylation in Ramos cells after 8 hours of removal”.
